The assay addresses T1, hPTPRS (Homo sapiens, UniProt Q13332).
T1 construct: The ICRs of PTPRG, PTPRS, and PTPRB and the catalytic domains of PTPN1 and PTPN6; GST (N); made in house; host or cells: Escherichia coli BL21
T1 sequence (Q13332 1304-1948 limits assumed): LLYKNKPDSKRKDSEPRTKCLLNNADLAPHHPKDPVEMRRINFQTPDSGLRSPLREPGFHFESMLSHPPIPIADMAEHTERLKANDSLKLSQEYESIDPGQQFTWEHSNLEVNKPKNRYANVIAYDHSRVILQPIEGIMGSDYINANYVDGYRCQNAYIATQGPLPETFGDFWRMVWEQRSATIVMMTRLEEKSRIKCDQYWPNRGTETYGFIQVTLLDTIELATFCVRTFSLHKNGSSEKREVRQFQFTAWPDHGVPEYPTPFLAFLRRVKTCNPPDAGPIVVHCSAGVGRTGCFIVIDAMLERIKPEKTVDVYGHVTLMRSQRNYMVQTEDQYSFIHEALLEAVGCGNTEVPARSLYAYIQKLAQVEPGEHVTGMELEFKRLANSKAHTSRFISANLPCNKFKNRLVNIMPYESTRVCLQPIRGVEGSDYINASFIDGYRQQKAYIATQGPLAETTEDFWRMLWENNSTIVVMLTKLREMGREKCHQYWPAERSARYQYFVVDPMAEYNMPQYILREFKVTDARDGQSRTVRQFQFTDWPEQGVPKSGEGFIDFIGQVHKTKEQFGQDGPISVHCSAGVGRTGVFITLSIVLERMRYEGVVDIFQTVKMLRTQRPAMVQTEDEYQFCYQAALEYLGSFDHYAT
Briefly: In vitro PTPase assay (DiFMUP), PTPRS. In kind it is biochemical. The conditions noted are these: 60-min preincubation. Here is the method:
Figure 4 NAZ2329, an allosteric inhibitor of R5 RPTP subfamily members. (A) Structure of NAZ2329. (B) Effect of preincubation of NAZ2329 on its inhibitory activity against PTPRZ. Recombinant human PTPRZ1 enzyme (the whole intracellular region) was premixed with NAZ2329 for the indicated times and followed by addition of a fluorogenic DiFMUP (non-specific PTP substrate, 6,8-difluoro-4-methylumbiliferyl phosphate) to measure PTP inhibitory activity. (C) Time dependence. The PTPRZ1 enzyme was added to the inhibitor–substrate mixture, and the inhibitory activity was determined at each time point relative to the vehicle control. (D) Reversibility of inhibition. […] The mixture was then 20-fold diluted, and recovered PTP activity was expressed as the relative activity compared with the vehicle-treated enzyme. […] PTPRZ1 enzymes were preincubated with NAZ2329 for 60 min, and the PTP activity was measured using DiFMUP. […]
Recombinant proteins corresponding to the entire intracellular regions (ICRs) of PTPRZ1, PTPRA, and PTPRM were expressed using a baculovirus-silkworm expression system, and purified as described. The ICRs of PTPRG, PTPRS, and PTPRB and the catalytic domains of PTPN1 and PTPN6 were expressed as glutathione-S-transferase (GST) fusion proteins from each pGEX plasmid in Escherichia coli strain BL21 (ref. [6]). […]

Compound `CCOc1ccc(C(F)(F)F)cc1CSc1ccsc1C(=O)NS(=O)(=O)c1ccccc1` [NAZ2329] returned an IC50 of 23.7 µM.

What is called IC50 is the concentration needed to halve the response being measured.

The record behind these values is publication PMC5514153, “Targeting PTPRZ inhibits stem cell-like properties and tumorigenicity in glioblastoma cells” (Scientific Reports, 2017).
